Laboratory results published in patent US20220177538A1, “CO-AGONISTS AT GLP-1 AND GIP RECEPTORS SUITABLE FOR ORAL DELIVERY” (Novo Nordisk A/S, priority 2020, published 2022).
Read-outs that look alike come from different tables or passages of the source. Starred links: 1 amine or outer side, 2 acyl side, 3 side chain; linkers in the order of their positions; H or OH if unused. Non-standard residues stand in square brackets, D forms with d. Residues, ends and D or L forms follow the SMILES beside them. Groups on a side chain read outwards from the residue. *: point of attachment. C18 diacid = O=C(O)CCCCCCCCCCCCCCCCC(=O)*; γGlu = O=C(O)[C@H](CCC(=O)[*:2])N[*:1]; εLys = N[C@@H](CCCCN[*:1])C(=O)[*:2]; Aib = CC(C)(N)C(=O)O

Tests used:
human GIP receptor = target: T1, human GIP receptor (Homo sapiens, UniProt P48546); experiment: In vitro functional potency, CRE luciferase reporter, whole BHK cells (hGIPR); assay type: cell-based; conditions: BHK CRE luc2P hGIPR cells
T1 construct: expressed in transfected cells; host or cells: BHK (parent line BHKTS13), clone BHK CRE luc2P hGIPR
T1 sequence (P48546 22-466): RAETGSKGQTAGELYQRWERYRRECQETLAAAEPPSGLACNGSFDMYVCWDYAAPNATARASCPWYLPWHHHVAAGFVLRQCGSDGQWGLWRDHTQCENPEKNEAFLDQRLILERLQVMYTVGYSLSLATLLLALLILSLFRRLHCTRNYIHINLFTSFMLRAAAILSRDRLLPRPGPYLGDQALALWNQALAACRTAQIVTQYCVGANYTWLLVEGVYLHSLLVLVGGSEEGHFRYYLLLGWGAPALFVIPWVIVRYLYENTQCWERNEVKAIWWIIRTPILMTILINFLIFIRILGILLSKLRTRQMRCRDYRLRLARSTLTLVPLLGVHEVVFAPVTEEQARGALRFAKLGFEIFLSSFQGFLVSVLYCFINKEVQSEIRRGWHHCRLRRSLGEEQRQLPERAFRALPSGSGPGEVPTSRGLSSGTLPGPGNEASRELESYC
Method: (§1) The in vitro functional potency is the measure of target receptor activation in a whole cell assay.
(§2) In vitro functional potency was determined by measuring the response of the target receptor in a reporter gene assay in individual cell lines. […] When the respective receptor is activated, it results in the production of cAMP, which in turn results in expression of the luciferase protein. When assay incubation is completed, luciferase substrate (luciferin) is added resulting in the enzymatic conversion of luciferin to oxyluciferin and producing bioluminescence. The luminescence is measured as the readout for the assay.
(§3) The cells lines used in these assays were BHK cells with BHKTS13 as a parent cell line. The cell lines were derived from a clone containing the CRE luciferase element and were established by further transfection with the respective human receptor to obtain the relevant cell line: BHK CRE luc2P hGLP-1R or BHK CRE luc2P hGIPR. The cells were cultured at 37° C. with 5% CO2 in Cell Culture Medium. They were aliquoted and stored in liquid nitrogen. The cells were kept in continuous culture and were seeded out the day before each assay.
(§4) GLP-1R Cell Culture Medium consisted of DMEM medium with 10% FBS, 500 µg/mL G418, and 300 µg/mL hygromycin. GIPR Cell Culture Medium consisted of DMEM medium with 10% FBS, 400 µg/mL G418, and 300 µg/mL hygromycin. Assay Buffer consisted of DMEM w/o phenol red, 10 mM Hepes, 1× Glutamax. 1% ovalbumin, and 0.1% Pluronic F-68 with the addition of HSA at twice the final assay concentration.
(§5) 1) Cells were plated at 5000 cells/well and incubated overnight in the assay plate. 2) Cells were washed once in DPBS. 3) Stocks of the test compounds and reference compounds in concentrations ranging from […] were diluted 1:150 in Assay Buffer. Compounds were then diluted 1:10 in column 1 of a 96 deep well dilution plate and then carried across the row creating a 3.5 fold, 12 point dilution curve. 4) Assay Buffer (50 μl aliquot) with or without HSA was added to each well in the assay plate. 5) A 50 μl aliquot of compound or blank was transferred from the dilution plate to the assay plate containing the Assay Buffer with or without HSA. 6) The assay plate was incubated for 3 h in a 5% CO2 incubator at 37° C. 7) The cells were washed once with DPBS. 8) A 100 μl aliquot of DPBS was added to each well of the assay plate. 9) A 100 μl aliquot of steadylite plus reagent (light sensitive) was added to each well of the assay plate. 10) Each assay plate was covered with aluminum foil to protect it from light and shaken at 250 RPM for 30 min at room temperature. 11) Each assay plate was read in a microtiter plate reader.
(§6) The data from the microtiter plate reader was first regressed in an Excel in order to calculate the x-axis, log scale concentrations based on the individual test compound's stock concentration and the dilutions of the assay. […] The software performs a non-linear regression (log(agonist) vs response). A minimum of two replicates was measured for each sample. The reported values are averages of the replicates.

human GLP-1 receptor = human GLP-1 receptor (Homo sapiens, UniProt P43220); experiment: In vitro functional potency, CRE luciferase reporter, whole BHK cells (hGLP-1R); assay type: cell-based; design: expressed in transfected cells; host or cells: BHK (parent line BHKTS13), clone BHK CRE luc2P hGLP-1R; conditions: BHK CRE luc2P hGLP-1R cells
Method: as §1, §2, §3, §4, §5, §6

[1] = 0% HSA, read-out: hGIPR, CRE Luc 0% HSA EC50
[2] = hGIPR, CRE Luc 1% HSA EC50, 1% HSA
[3] = 0% HSA, read-out: hGLP-1R, CRE Luc 0% HSA EC50
[4] = hGLP-1R, CRE Luc 1% HSA EC50, 1% HSA

human GLP-1 receptor, sequence (P43220 24-463): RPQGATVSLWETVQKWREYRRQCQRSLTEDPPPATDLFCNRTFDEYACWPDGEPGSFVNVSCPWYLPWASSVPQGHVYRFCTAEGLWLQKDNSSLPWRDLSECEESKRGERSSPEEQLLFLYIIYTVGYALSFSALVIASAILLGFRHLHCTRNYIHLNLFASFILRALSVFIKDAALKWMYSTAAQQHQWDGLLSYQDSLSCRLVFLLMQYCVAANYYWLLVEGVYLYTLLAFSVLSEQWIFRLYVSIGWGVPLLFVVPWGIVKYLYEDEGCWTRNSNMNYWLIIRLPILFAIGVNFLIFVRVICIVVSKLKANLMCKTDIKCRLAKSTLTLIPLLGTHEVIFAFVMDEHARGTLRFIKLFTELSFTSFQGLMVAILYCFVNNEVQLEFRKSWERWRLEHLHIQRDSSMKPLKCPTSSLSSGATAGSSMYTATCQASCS

Structure (SMILES)	EC50 (human GIP receptor; [1]) [nM]	EC50 (human GIP receptor; [2]) [nM]	EC50 (human GLP-1 receptor; [3]) [nM]	EC50 (human GLP-1 receptor; [4]) [nM]
CC[C@H](C)[C@H](NC(=O)[C@H](Cc1ccccc1)NC(=O)[C@H](CCC(=O)O)NC(=O)[C@H](CCCNC(=N)N)NC(=O)[C@H](C)NC(=O)[C@H](C)NC(=O)[C@H](CCC(N)=O)NC(=O)[C@H](CCCCNC(=O)[C@@H](N)CCCCNC(=O)[C@@H](N)CCCCNC(=O)CC[C@H](NC(=O)CCCCCCCCCCCCCCCCC(=O)O)C(=O)O)NC(=O)[C@H](CCC(=O)O)NC(=O)[C@H](CC(C)C)NC(=O)[C@H](CC(C)C)NC(=O)[C@@H](NC(=O)[C@H](CO)NC(=O)[C@H](Cc1ccc(O)cc1)NC(=O)[C@H](CC(=O)O)NC(=O)[C@H](CO)NC(=O)[C@@H](NC(=O)[C@H](Cc1ccccc1)NC(=O)[C@@H](NC(=O)CNC(=O)[C@H](CCC(=O)O)NC(=O)C(C)(C)NC(=O)[C@@H](N)Cc1ccc(O)cc1)[C@@H](C)O)[C@@H](C)O)[C@@H](C)CC)C(=O)N[C@@H](CCC(N)=O)C(=O)N[C@@H](Cc1c[nH]c2ccccc12)C(=O)N[C@@H](CC(C)C)C(=O)N[C@@H](CC(C)C)C(=O)N[C@@H](C)C(=O)NCC(=O)NCC(=O)N1CCC[C@H]1C(=O)N[C@@H](CO)C(=O)N[C@@H](CO)C(=O)NCC(=O)N[C@@H](C)C(=O)N1CCC[C@H]1C(=O)N1CCC[C@H]1C(=O)N1CCC[C@H]1C(=O)N[C@@H](CO)C(=O)O [Compound 23] (H-Y[Aib]EGTFTSDYSILLEK([εLys-εLys-γGlu-C18 diacid])QAAREFIQWLLAGGPSSGAPPPS-OH)	0.0067	0.134	0.0041	0.118
CC[C@H](C)[C@H](NC(=O)[C@H](Cc1ccccc1)NC(=O)[C@H](CCC(=O)O)NC(=O)[C@H](CCCNC(=N)N)NC(=O)[C@H](C)NC(=O)[C@H](C)NC(=O)[C@H](CCC(N)=O)NC(=O)[C@H](CCCCNC(=O)[C@@H](N)CCCCNC(=O)[C@@H](N)CCCCNC(=O)CC[C@H](NC(=O)CCCCCCCCCCCCCCCCC(=O)O)C(=O)O)NC(=O)[C@H](CCC(=O)O)NC(=O)[C@H](CC(C)C)NC(=O)[C@H](CC(C)C)NC(=O)[C@@H](NC(=O)[C@H](CO)NC(=O)[C@H](Cc1ccc(O)cc1)NC(=O)[C@H](CC(=O)O)NC(=O)[C@H](CO)NC(=O)[C@@H](NC(=O)[C@H](Cc1ccccc1)NC(=O)[C@@H](NC(=O)CNC(=O)[C@H](CCC(=O)O)NC(=O)C(C)(C)NC(=O)[C@@H](N)Cc1ccc(O)cc1)[C@@H](C)O)[C@@H](C)O)[C@@H](C)CC)C(=O)N[C@@H](CCC(=O)O)C(=O)N[C@@H](Cc1c[nH]c2ccccc12)C(=O)N[C@@H](CC(C)C)C(=O)N[C@@H](CC(C)C)C(=O)N[C@@H](CCCNC(=N)N)C(=O)NCC(=O)NCC(=O)N1CCC[C@H]1C(=O)N[C@@H](CO)C(=O)N[C@@H](CO)C(=O)NCC(=O)N[C@@H](C)C(=O)N1CCC[C@H]1C(=O)N1CCC[C@H]1C(=O)N1CCC[C@H]1C(=O)N[C@@H](CO)C(=O)O [Compound 27] (H-Y[Aib]EGTFTSDYSILLEK([εLys-εLys-γGlu-C18 diacid])QAAREFIEWLLRGGPSSGAPPPS-OH)	0.0063	0.132	0.0046	0.127
